The text below walks through data of US7259167B2, “Antimalarial and antiproliferative pharmacophore models, novel tryptanthrin compounds having increased solubility, and methods of making and using thereof” (United States of America as Represented by the Secretary of …, priority 2002, dated 2007).

Values after ≈ are worked out from the molar mass of the structure shown.

Data set [1] relates to P. falciparum W2 (Indochina) clone. The data set can be described thus: Antimalarial activity assay in vitro ([3H]hypoxanthine incorporation), W2 clone. Format: cell-based. The note with it: Plasmodium falciparum, Table 7, read-out: W-2. The source says:
Although two P. falciparum malaria parasite clones, designated as Sierra Leone (D6) and Indochina (W2) were used in the susceptibility testing as disclosed in Example 1, the IC50 values obtained from the W2 clones were used as the activity parameter to develop the pharmacophore model as the D6 clone results closely paralleled the W2 clones. See U.S. Pat. No. 6,284,772, which is herein incorporated by reference.
(§1) The tryptanthrin compounds were examined for IC50 values against either the P. falciparum W2 (Indochina) or D6 (Sierra Leone) clones in vitro. See U.S. Pat. No. 6,284,772, which is herein incorporated by reference. The in vitro assays were conducted by using the semiautomated microdilution technique of Desjardins, et al. (1979) Antimicrob. Agents Chemther. 16:710-718 and the [^3H]hypoxanthine incorporation techniques of Chulay et al. (1983) Exp. Parasitol. 55:138-146, both of which are herein incorporated by reference. […] The clones were derived by direct visualization and micromanipulation from the patient isolates.
(§2) Test tryptanthrin compounds were initially dissolved in DMSO and diluted 400-fold in RPMI 1640 culture medium supplemented with 25 mM Hepes, 32 mM NaHCO3 and 10% Albumax I (GIBCO BRL, Grand Island, N.Y.). These solutions were subsequently serially diluted 2-fold with a Biomek 1000 (Beckman, Fullerton, Calif.) over 11 different concentrations. The parasites were exposed to serial dilutions of each compound for 48 hours and incubated at 37° C. with 5% O2, 5% CO2, and 90% N2 prior to the addition of [^3H]hypoxanthine. After a further incubation of 18 hours, parasite DNA was harvested from each microtiter well using a Packard Filtermate 196 Harvester (Meriden, Conn.) onto glass filters. Uptake of [^3H]hypoxanthine was measured with a Packard topcount scintillation counter.

The subject of data set [2] is P. falciparum D6 (Sierra Leone) clone. The experiment in a line: Antimalarial activity assay in vitro ([3H]hypoxanthine incorporation), D6 clone. Format: cell-based. The note with it: Plasmodium falciparum, Table 7, read-out: D-6. The method, then: as §1, §2
Data set [3] is described as follows: Cyclic voltammetry, redox potentials. Format: physicochemical. More on the design: unit not given here. The note with it: 1 mM in acetonitrile, 0.1 M tetrabutylammonium hexafluorophosphate, Ag-AgCl reference. The method, then:
The redox potentials associated with electron transfer to the oxygen atoms in compounds was measured. Experiments were performed on a CV-50W Voltammetric analyzer with a C2 cell stand (Bioanalytical systems, West Lafayette Ind.).
Cyclic voltammetry experiments were performed on a CV-50W Voltammetric analyzer with a C2 cell stand (Bioanalytical systems, West Lafayette Ind.). A glassy carbon working, an Ag—AgCl reference electrode and a Pt auxiliary electrode were used in a 5 ml glass cell. All samples were dissolved in dry acetonitrile (Aldrich, St. Louis, Mo.) with 0.1 M tetrabutylammonium hexafluorophosphate (Aldrich, St. Louis, Mo.) as the supporting electrolyte. Each analog was prepared at a concentration of 1 mM and was degassed with nitrogen for 5 minutes prior to analysis. Samples were run at several scan rates ranging from 20 to 1000 mV/s. See Smyth, M. R., and Vos, J. G. Analytical Voltammetry; Elsevier: New York, 1992; Chapter 1, which is herein incorporated by reference.

Data set [4] is described as follows: Hemin binding activity assay by 1H NMR (pseudocontact shifts). The note with it: for Maximum induced Δδ: hemin induced pseudocontact chemical shift; for Maximum induced Δδ / Concentration dependence Δδ: DMSO-d6; for Concentration dependence Δδ: slope of Δδ v. hemin concentration. The method, then:
As provided in Example 5, the hemin binding affinity for a series of tryptanthrin compounds with functional groups at the 8-position with different electron donating/withdrawing characteristics corresponding with the pharmacophore model of the present invention was determined by ^1H NMR. The binding interaction was measured as a function of the induced up-field shift in the chemical shift as a function of increasing hemin concentration. ^1H spectra of selected compounds each analog with an increasing concentration of hemin were collected and analyzed for the effect of the pseudocontact shifts.
It is well known that bio-molecules containing the paramagnetic species Fe^+3 induce via pseudocontact effect (a thru-space paramagnetic interaction, similar to the thru-space diopolar interaction or NOE) up-field chemical shifts of the ^1H, ^13C, ^15N atoms of bound ligands. See Serge Moreau et al. (1985) Biochemica et. Biophysica Acta 107-116; Alam, S. L., et al. (1998) J. Biomol. NMR 11:119-133; and Kalodimos, C. G., et al. (2000) J. Inorg. Biochem. 79:371-380, which are herein incorporated by reference. […] See Crowley, P. B., et al. (2001) J. Am. Chem. Soc. 123:10444-10453, which is herein incorporated by reference. Consequently, the closer a particular proton on the ligand is to the Fe^+3 atom, the greater the induced Δδ.
The hemin binding affinity for a series of tryptanthrin compounds with functional groups at the 8-position with different electron donating/withdrawing characteristics corresponding with the pharmacophore model of the present invention was determined using ^1H NMR. The binding interaction was measured as a function of the induced up-field shift in the chemical shift as a function of increasing hemin concentration. ^1H spectra of each analog with an increasing concentration of hemin were collected and analyzed for the effect of the pseudocontact shifts.
To each sample, a 100 or 200 μl aliquot of a known concentration of hemin dissolved in 1.0 ml of DMSO-d6 was added. The concentrations of the tryptanthrin compounds compounds ranged from 3.0 to 8.0 mg per 500 μl of DMSO. A corresponding solution of hemin in DMSO was prepared to maintain a molar ratio of tryptanthrin compounds to hemin in the range of 1:1.0 to 1:1.5.
All ^1H NMR data was collected using a Bruker Avance-600 spectrometer using methods known in the art. See e.g. Wang, J., et al. (2001) J. Am. Chem. Soc. 123:8080-8088, which is herein incorporated by reference. The proton spectra were collected at 300 K, using a spectral width of 9090.9 Hz. All spectra were acquired with 64k data points in F2. All chemical shifts were referenced internally to TMS (0.00 ppm). The spectra were processed using XWINNMR (Bruker BioSpin Corporation, Billerica, Mass.) on a Silicon Graphics O2 workstation (Silicon Graphics, Mountain View, Calif.). Each data set was multiplied by a Gaussain window function with 0.3 Hz line broadening in each dimension before transformation.

The subject of the next data set is malaria parasites. The experiment in a line: In vivo testing (modified Thompson test), mouse malaria. The arrangement: species or system mice. The source says:
The in vivo efficacy of the compounds of the present invention alone or in combination with an adjuvant can be determined in a modified Thompson test. This test measures the survivability of mice and parasitemia clearance following administration of the compound or composition of the invention on days 3-5 post infection. In brief, 5×10^5 malaria parasites of one or more of the four described strains are inoculated intraperitoneally to female mice that weight approximately 24-30 g. Each compound was dissolved in 5% sodium bicarbonate, and was administered p.o. twice daily from day 3 to day 5 postinfection. Total dosage of the compounds of the invention is 0.001 to 1000 mg/kg. The percent suppression of parasitemia in the treated mice compared to untreated controls is determined for each test compound. Survival of mice to day 60 post infection is considered a cure. Compounds are considered active when the survival time of the treated mice is greater than twice the control mice.
The test of the six compounds identified above were conducted by subcutaneous dosing in peanut oil. Formulated in peanut oil and injected s.c. (N=8) at various doses up to 190 mg/kg. […] Although parasites were not cleared, the survival of infected mice doubled that of the control. Life expectancy was 12-14 days compared to 6-7 days in the control (parasitized, untreated).

As for `O=C1c2cc(Cl)ccc2-n2c1nc1cc(N3CCCCC3)ccc1c2=O` [WR281647], the IC50 in data set [1] was 58.1 ng/mL (≈ 0.159 µM). In data set [2], the IC50 was determined as 97.1 ng/mL (≈ 0.265 µM). For the same compound, in data set [3], the Redox1 is recorded as −696 and the “Redox 2” value is given as −1348.

`O=C1c2cc(OC(F)(F)F)ccc2-n2c1nc1ncccc1c2=O` [DN9]: in data set [4], the “Maximum induced Δδ” value turned out to be 0.462 ppm and the “Concentration dependence Δδ” value is recorded as 0.08951 ppm/mole %.

With `COc1cccc2c(=O)n3c(nc12)C(=O)c1cc(I)ccc1-3` [WR281635], the figures for the IC50 in data set [1] and in data set [2] were 35.6 ng/mL (≈ 0.0882 µM) and 95.3 ng/mL (≈ 0.236 µM), respectively. The Redox1 in data set [3] is given as −640. Besides, in data set [3], the “Redox 2” value is reported as −1230.

On to `O=C1c2cc(OC(F)(F)F)ccc2-n2c1nc1cc(SCCO)ccc1c2=O` [WR281525], for which the IC50 in data set [1] is 1.25 ng/mL (≈ 0.00307 µM); in data set [2], 2.31 ng/mL (≈ 0.00566 µM). The same compound registered a Redox1 in data set [3] of −600. The “Redox 2” value in data set [3] is given as −1252.

Regarding `O=C1c2cc(F)ccc2-n2c1nc1ccccc1c2=O` [WR^282611], in the data set with malaria parasites (190 mg/kg s.c. in peanut oil), the “survival of infected mice relative to control” value is “doubled”. Besides, the Life expectancy in the data set on malaria parasites (190 mg/kg s.c. in peanut oil, control 6-7 days) lay within 12 to 14 days. Moreover, the activity result in the data set on malaria parasites (max. dosage 190 mg/kg s.c. in peanut oil) is “exhibited activity”.

Take `CN(CCO)c1ccc2c(=O)n3c(nc2c1)C(=O)c1cc(F)ccc1-3` [WR281523]: the IC50 in data set [1] was 2.46 ng/mL (≈ 0.00723 µM). The IC50 in data set [2] was determined as 4.12 ng/mL (≈ 0.0121 µM). Also, in data set [3], the Redox1 is reported as −630 and the “Redox 2” value is −1281.

In the case of `CN1CCN(c2ccc3c(=O)n4c(nc3c2)C(=O)c2cc(Cl)ccc2-4)CC1` [WR281588], the IC50 in data set [1] stood at 4.27 ng/mL (≈ 0.0112 µM). Besides, in data set [2], the IC50 was found to be 10.5 ng/mL (≈ 0.0275 µM). Besides, in data set [3], the Redox1 is listed as −692 and the “Redox 2” value is listed as −1324.

For the compound `O=C1c2cc(F)ccc2-n2c1nc1c(F)cccc1c2=O` [WR281631], the IC50 in data set [1] was 1.58 ng/mL (≈ 0.00557 µM); in data set [2], 2.57 ng/mL (≈ 0.00904 µM). The compound also had a Redox1 in data set [3] of −593. Further, in data set [3], the “Redox 2” value is on record as −1219.

With `CCCCCCCC(=O)OCCN(C)c1ccc2c(=O)n3c(nc2c1)C(=O)c1cc(Cl)ccc1-3` [WR281591], the IC50 in data set [1] came to 36.8 ng/mL (≈ 0.0764 µM). Also, the IC50 in data set [2] came to 70.1 ng/mL (≈ 0.146 µM). In data set [3], the Redox1 was −709 and the “Redox 2” value was −1375.

As for `O=C1c2cc(Cl)ccc2-n2c1nc1cc(F)ccc1c2=O` [WR281583], the IC50 amounted to 4.74 ng/mL (≈ 0.0158 µM) in data set [1] and 6.77 ng/mL (≈ 0.0225 µM) in data set [2]. Further, the Redox1 in data set [3] is −586. In addition, in data set [3], the “Redox 2” value was −1242.

For the compound `O=C1c2cc(F)ccc2-n2c1nc1ncccc1c2=O` [DN63], in data set [4], the “Maximum induced Δδ” value turned out to be 0.360 ppm and the “Concentration dependence Δδ” value is on record as 0.1366 ppm/mole %.

`O=C1c2ccc(Cl)cc2-n2c1nc1ncccc1c2=O` [DN48]: in data set [4], the “Maximum induced Δδ” value is recorded as 0.389 ppm and the “Concentration dependence Δδ” value turned out to be 0.119 ppm/mole %.

`O=C1c2cc([N+](=O)[O-])ccc2-n2c1nc1ncccc1c2=O` [DN40]: the “maximum pseudocontact shift relative to DN48” value in data set [4] (compared with DN48) is recorded as “approximately 3 times”. Besides, in data set [4], the “Maximum induced Δδ” value amounted to 1.538 ppm and the “Concentration dependence Δδ” value turned out to be 0.4159 ppm/mole %.

Turning to `COc1ccc2c(c1)C(=O)c1nc3ncccc3c(=O)n1-2` [DN23], in data set [4], the “Maximum induced Δδ” value was found to be 0.208 ppm and the “Concentration dependence Δδ” value came out at 0.119 ppm/mole %.
